Reference: the kinase profiling compilation of Christmann-Franck et al. (2016)

Legend:
Assay in all cases: radiometric filter-binding kinase assay, Kinase HotSpot
Conditions in all cases: compound 0.5 µM; ATP 10 µM
ABL1 (human) = ABL1 (human) (UniProt P00519)
ACVR1 (human) = ACVR1 (human) (UniProt Q04771)
[1] = test system: ARAF (human), P10398 [Y301D/Y302D]
AURKB (human) = AURKB (human) (UniProt Q96GD4)
BLK (human) = BLK (human) (UniProt P51451)
BRAF (human) = BRAF (human) (UniProt P15056)
BTK (human) = BTK (human) (UniProt Q06187)
CDK1 CCNA2 (human) = CDK1 CCNA2 (human) (UniProt P06493+P20248)
CSNK2A2 (human) = CSNK2A2 (human) (UniProt P19784)
DCLK2 (human) = DCLK2 (human) (UniProt Q8N568)
DYRK1A (human) = DYRK1A (human) (UniProt Q13627)
EGFR (human) = EGFR (human) (UniProt P00533)
EPHA3 (human) = EPHA3 (human) (UniProt P29320)
EPHA5 (human) = EPHA5 (human) (UniProt P54756)
EPHA6 (human) = EPHA6 (human) (UniProt Q9UF33)
FER (human) = FER (human) (UniProt P16591)
FGR (human) = FGR (human) (UniProt P09769)
FLT1 (human) = FLT1 (human) (UniProt P17948)
GSG2 (human) = GSG2 (human) (UniProt Q8TF76)
HIPK3 (human) = HIPK3 (human) (UniProt Q9H422)
IGF1R (human) = IGF1R (human) (UniProt P08069)
IKBKB (human) = IKBKB (human) (UniProt O14920)
MAP2K2 (human) = MAP2K2 (human) (UniProt P36507)
MAP3K2 (human) = MAP3K2 (human) (UniProt Q9Y2U5)
MAPKAPK2 (human) = MAPKAPK2 (human) (UniProt P49137)
MYLK2 (human) = MYLK2 (human) (UniProt Q9H1R3)
MYO3B (human) = MYO3B (human) (UniProt Q8WXR4)
PAK6 (human) = PAK6 (human) (UniProt Q9NQU5)
PDGFRB (human) = PDGFRB (human) (UniProt P09619)
PNCK (human) = PNCK (human) (UniProt Q6P2M8)
PRKACG (human) = PRKACG (human) (UniProt P22612)
PRKCB1 (human) = PRKCB1 (human) (UniProt P05771)
PRKCD (human) = PRKCD (human) (UniProt Q05655)
RET (human) = RET (human) (UniProt P07949)
ROS1 (human) = ROS1 (human) (UniProt P08922)
STK24 (human) = STK24 (human) (UniProt Q9Y6E0)
STK38 (human) = STK38 (human) (UniProt Q15208)
STK4 (human) = STK4 (human) (UniProt Q13043)
TLK2 (human) = TLK2 (human) (UniProt Q86UE8)
ULK3 (human) = ULK3 (human) (UniProt Q6PHR2)
ZAP70 (human) = ZAP70 (human) (UniProt P43403)
FRK (human) = FRK (human) (UniProt P42685)

Sequence of ARAF (human), P10398 [Y301D/Y302D] (P10398 whole entry Y301D/Y302D, looked up): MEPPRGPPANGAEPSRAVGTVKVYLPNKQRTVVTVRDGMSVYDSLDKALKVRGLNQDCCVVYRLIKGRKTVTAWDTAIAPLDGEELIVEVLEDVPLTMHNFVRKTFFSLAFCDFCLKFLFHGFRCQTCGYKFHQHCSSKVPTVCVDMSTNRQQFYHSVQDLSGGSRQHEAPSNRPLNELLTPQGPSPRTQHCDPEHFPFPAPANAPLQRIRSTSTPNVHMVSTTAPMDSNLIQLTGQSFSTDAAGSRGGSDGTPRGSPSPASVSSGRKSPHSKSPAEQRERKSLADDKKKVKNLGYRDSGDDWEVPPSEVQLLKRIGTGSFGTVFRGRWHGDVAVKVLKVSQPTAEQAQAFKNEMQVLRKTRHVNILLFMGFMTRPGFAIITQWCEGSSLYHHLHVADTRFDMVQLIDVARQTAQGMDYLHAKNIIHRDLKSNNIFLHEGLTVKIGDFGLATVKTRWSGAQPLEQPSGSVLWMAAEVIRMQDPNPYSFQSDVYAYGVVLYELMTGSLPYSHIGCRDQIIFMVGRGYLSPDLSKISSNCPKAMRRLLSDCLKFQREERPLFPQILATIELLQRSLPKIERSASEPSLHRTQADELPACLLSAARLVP
Sequence of PNCK (human) (Q6P2M8 whole entry, looked up): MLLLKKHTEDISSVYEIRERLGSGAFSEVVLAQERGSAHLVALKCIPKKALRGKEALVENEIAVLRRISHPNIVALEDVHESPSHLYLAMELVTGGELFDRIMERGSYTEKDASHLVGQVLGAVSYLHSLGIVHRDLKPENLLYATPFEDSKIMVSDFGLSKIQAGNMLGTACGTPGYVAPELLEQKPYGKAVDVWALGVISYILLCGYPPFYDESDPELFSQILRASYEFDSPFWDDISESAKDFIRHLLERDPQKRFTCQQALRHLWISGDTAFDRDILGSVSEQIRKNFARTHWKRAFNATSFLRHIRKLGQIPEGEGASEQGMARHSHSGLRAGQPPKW
Sequence of STK38 (human) (Q15208 whole entry, looked up): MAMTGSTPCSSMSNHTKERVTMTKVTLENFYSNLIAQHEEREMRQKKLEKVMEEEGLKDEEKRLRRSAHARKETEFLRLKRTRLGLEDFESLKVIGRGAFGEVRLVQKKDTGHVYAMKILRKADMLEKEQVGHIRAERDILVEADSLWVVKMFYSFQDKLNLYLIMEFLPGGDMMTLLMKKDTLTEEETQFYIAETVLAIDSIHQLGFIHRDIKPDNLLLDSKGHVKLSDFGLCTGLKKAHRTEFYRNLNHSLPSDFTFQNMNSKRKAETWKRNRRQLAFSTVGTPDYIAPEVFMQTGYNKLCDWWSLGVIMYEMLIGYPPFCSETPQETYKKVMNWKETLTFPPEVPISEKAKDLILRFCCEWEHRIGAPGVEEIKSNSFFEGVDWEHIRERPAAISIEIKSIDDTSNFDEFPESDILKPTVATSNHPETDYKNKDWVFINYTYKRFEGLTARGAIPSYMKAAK
Sequence of EPHA6 (human) (Q9UF33 whole entry, looked up): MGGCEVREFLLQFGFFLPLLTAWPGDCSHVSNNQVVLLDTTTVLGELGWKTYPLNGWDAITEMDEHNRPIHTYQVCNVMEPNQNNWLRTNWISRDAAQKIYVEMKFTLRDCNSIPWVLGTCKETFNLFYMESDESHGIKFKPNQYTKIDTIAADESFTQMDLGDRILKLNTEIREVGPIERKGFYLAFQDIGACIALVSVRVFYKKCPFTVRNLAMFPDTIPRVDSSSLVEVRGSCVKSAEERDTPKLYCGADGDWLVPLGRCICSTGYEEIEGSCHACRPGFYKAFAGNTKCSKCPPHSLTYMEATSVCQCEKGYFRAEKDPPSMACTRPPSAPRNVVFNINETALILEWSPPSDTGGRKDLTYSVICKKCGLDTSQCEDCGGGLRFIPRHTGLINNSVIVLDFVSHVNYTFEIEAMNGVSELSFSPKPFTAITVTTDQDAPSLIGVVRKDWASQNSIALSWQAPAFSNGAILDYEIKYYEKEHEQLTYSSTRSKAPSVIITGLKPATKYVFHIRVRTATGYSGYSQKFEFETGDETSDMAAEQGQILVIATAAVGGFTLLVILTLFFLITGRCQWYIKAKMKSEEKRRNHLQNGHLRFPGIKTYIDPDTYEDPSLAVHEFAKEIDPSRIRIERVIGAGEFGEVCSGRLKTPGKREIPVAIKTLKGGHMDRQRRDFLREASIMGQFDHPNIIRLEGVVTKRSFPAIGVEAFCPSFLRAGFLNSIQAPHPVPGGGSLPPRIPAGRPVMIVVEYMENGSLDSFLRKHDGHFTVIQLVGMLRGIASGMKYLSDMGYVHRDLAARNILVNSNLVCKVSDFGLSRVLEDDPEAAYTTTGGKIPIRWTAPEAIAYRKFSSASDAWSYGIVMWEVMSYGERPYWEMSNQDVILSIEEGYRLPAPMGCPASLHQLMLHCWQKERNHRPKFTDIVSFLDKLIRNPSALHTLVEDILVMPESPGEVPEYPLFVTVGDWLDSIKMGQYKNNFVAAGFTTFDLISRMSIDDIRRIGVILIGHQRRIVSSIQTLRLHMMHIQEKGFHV
Sequence of FGR (human) (P09769 whole entry, looked up): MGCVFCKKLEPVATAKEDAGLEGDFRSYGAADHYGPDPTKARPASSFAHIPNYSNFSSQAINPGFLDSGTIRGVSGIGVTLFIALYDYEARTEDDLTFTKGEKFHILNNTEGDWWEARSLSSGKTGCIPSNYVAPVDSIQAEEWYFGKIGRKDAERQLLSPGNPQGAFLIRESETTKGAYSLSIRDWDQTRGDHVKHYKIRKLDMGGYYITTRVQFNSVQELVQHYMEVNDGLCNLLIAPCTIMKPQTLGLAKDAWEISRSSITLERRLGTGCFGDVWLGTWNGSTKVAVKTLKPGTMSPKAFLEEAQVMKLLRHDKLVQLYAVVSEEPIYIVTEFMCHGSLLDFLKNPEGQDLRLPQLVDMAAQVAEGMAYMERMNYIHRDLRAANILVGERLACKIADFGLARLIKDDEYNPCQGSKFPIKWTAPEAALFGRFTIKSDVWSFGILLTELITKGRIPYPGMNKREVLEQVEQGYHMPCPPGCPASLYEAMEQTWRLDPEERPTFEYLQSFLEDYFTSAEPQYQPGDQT
Sequence of TLK2 (human) (Q86UE8 whole entry, looked up): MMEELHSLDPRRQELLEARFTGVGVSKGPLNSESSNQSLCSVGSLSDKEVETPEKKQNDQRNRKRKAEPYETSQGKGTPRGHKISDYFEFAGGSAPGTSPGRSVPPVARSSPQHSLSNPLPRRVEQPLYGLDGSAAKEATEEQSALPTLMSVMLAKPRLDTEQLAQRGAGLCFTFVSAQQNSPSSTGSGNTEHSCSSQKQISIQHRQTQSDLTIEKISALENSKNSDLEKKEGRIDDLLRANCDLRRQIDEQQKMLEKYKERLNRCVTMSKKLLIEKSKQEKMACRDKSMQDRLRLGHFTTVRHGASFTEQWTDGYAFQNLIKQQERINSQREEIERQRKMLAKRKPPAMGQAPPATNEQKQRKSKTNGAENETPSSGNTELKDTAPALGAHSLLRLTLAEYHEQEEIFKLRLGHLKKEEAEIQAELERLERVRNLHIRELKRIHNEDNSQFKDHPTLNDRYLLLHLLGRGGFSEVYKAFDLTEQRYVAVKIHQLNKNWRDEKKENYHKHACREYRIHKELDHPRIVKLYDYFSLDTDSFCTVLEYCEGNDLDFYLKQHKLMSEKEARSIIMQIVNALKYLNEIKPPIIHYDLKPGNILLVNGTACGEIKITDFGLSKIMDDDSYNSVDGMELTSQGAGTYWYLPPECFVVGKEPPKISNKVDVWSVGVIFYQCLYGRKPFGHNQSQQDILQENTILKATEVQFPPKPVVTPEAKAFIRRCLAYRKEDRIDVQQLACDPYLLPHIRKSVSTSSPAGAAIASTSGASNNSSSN
Sequence of EPHA5 (human) (P54756 whole entry, looked up): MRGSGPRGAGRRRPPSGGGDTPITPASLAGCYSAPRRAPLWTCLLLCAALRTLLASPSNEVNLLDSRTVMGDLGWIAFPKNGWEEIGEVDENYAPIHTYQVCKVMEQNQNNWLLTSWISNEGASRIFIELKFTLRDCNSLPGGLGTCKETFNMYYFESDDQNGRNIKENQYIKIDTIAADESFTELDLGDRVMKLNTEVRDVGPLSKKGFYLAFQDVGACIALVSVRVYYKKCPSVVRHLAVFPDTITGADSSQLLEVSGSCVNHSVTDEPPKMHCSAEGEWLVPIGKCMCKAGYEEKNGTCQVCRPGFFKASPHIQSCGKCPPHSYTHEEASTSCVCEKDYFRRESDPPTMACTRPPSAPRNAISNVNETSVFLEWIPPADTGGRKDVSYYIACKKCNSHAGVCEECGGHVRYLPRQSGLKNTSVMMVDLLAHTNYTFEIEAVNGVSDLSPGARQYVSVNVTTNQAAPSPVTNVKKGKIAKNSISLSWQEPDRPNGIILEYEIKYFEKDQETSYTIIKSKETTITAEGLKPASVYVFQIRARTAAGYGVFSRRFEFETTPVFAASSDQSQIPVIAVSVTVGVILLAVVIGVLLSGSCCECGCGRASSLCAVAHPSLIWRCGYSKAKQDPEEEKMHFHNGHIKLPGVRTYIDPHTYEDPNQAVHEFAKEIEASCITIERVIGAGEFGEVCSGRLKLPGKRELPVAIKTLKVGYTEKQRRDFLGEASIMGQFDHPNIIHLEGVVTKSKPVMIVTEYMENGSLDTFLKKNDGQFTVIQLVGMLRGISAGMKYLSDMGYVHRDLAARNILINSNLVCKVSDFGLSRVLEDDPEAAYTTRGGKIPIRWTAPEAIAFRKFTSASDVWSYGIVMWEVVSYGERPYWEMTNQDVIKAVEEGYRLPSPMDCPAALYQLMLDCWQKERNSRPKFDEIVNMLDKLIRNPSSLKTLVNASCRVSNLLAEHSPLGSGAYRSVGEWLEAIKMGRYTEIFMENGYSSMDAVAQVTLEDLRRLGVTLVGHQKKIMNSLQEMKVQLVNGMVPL

Cc1ccc(NC(=O)c2ccc(CN3CCN(C)CC3)cc2)cc1Nc1nc(-c2cccnc2)cs1
residual activity (ABL1 (human)): 49.8%
residual activity (ACVR1 (human)): 101%
residual activity [1]: 102%
residual activity (AURKB (human)): 99.5%
residual activity (BLK (human)): 57.5%
residual activity (BRAF (human)): 92.3%
residual activity (BTK (human)): 99.6%
residual activity (CDK1 CCNA2 (human)): 98%
residual activity (CSNK2A2 (human)): 86.7%
residual activity (DCLK2 (human)): 102%
residual activity (DYRK1A (human)): 106%
residual activity (EGFR (human)): 99.6%
residual activity (EPHA3 (human)): 90.3%
residual activity (EPHA5 (human)): 104%
residual activity (EPHA6 (human)): 98.2%
residual activity (FER (human)): 97.6%
residual activity (FGR (human)): 43.6%
residual activity (FLT1 (human)): 96.4%
residual activity (GSG2 (human)): 100%
residual activity (HIPK3 (human)): 101%
residual activity (IGF1R (human)): 101%
residual activity (IKBKB (human)): 97.8%
residual activity (MAP2K2 (human)): 114%
residual activity (MAP3K2 (human)): 102%
residual activity (MAPKAPK2 (human)): 102%
residual activity (MYLK2 (human)): 98.7%
residual activity (MYO3B (human)): 82.6%
residual activity (PAK6 (human)): 101%
residual activity (PDGFRB (human)): 17.3%
residual activity (PNCK (human)): 97%
residual activity (PRKACG (human)): 110%
residual activity (PRKCB1 (human)): 101%
residual activity (PRKCD (human)): 97.9%
residual activity (RET (human)): 96.4%
residual activity (ROS1 (human)): 91.5%
residual activity (STK24 (human)): 104%
residual activity (STK38 (human)): 95.9%
residual activity (STK4 (human)): 101%
residual activity (TLK2 (human)): 94.5%
residual activity (ULK3 (human)): 104%
residual activity (ZAP70 (human)): 112%

CC(C)[C@H](CO)Nc1nc(Nc2cccc(Cl)c2)c2ncn(C(C)C)c2n1
residual activity (ABL1 (human)): 75.6%
residual activity (ACVR1 (human)): 92.6%
residual activity [1]: 96.5%
residual activity (AURKB (human)): 97%
residual activity (BLK (human)): 68.8%
residual activity (BRAF (human)): 92.7%
residual activity (BTK (human)): 75.6%
residual activity (CDK1 CCNA2 (human)): 31.7%
residual activity (CSNK2A2 (human)): 93.2%
residual activity (DCLK2 (human)): 100%
residual activity (DYRK1A (human)): 65.4%
residual activity (EGFR (human)): 94.2%
residual activity (EPHA3 (human)): 105%
residual activity (EPHA5 (human)): 87.9%
residual activity (EPHA6 (human)): 93.8%
residual activity (FER (human)): 62.9%
residual activity (FGR (human)): 44.3%
residual activity (FLT1 (human)): 102%
residual activity (FRK (human)): 90.2%
residual activity (GSG2 (human)): 93.6%
residual activity (HIPK3 (human)): 102%
residual activity (IGF1R (human)): 100%
residual activity (IKBKB (human)): 107%
residual activity (MAP2K2 (human)): 104%
residual activity (MAP3K2 (human)): 97.8%
residual activity (MAPKAPK2 (human)): 102%
residual activity (MYLK2 (human)): 97.1%
residual activity (MYO3B (human)): 94.2%
residual activity (PAK6 (human)): 111%
residual activity (PDGFRB (human)): 106%
residual activity (PNCK (human)): 97.8%
residual activity (PRKACG (human)): 113%
residual activity (PRKCB1 (human)): 102%
residual activity (PRKCD (human)): 104%
residual activity (RET (human)): 81.4%
residual activity (ROS1 (human)): 88.1%
residual activity (STK24 (human)): 80.8%
residual activity (STK38 (human)): 90.5%
residual activity (STK4 (human)): 87.7%
residual activity (TLK2 (human)): 94.7%
residual activity (ULK3 (human)): 59.6%
residual activity (ZAP70 (human)): 99.7%

CSc1nc(-c2ccc(F)cc2)c(-c2ccnc(NC(C)c3ccccc3)c2)[nH]1 (centres undefined)
residual activity (ABL1 (human)): 103%
residual activity (ACVR1 (human)): 89.3%
residual activity [1]: 99%
residual activity (AURKB (human)): 98.4%
residual activity (BLK (human)): 110%
residual activity (BRAF (human)): 91.8%
residual activity (BTK (human)): 76.6%
residual activity (CDK1 CCNA2 (human)): 78%
residual activity (CSNK2A2 (human)): 88.8%
residual activity (DCLK2 (human)): 92.7%
residual activity (DYRK1A (human)): 97.9%
residual activity (EGFR (human)): 87.1%
residual activity (EPHA3 (human)): 82.5%
residual activity (EPHA5 (human)): 106%
residual activity (EPHA6 (human)): 75.8%
residual activity (FER (human)): 97.2%
residual activity (FGR (human)): 88.1%
residual activity (FLT1 (human)): 71.5%
residual activity (FRK (human)): 100%
residual activity (GSG2 (human)): 96.3%
residual activity (HIPK3 (human)): 101%
residual activity (IGF1R (human)): 101%
residual activity (MAP2K2 (human)): 78.6%
residual activity (MAP3K2 (human)): 101%
residual activity (MAPKAPK2 (human)): 106%
residual activity (MYLK2 (human)): 102%
residual activity (MYO3B (human)): 100%
residual activity (PAK6 (human)): 93.5%
residual activity (PDGFRB (human)): 97.6%
residual activity (PNCK (human)): 92.9%
residual activity (PRKACG (human)): 115%
residual activity (PRKCB1 (human)): 92.2%
residual activity (PRKCD (human)): 89.1%
residual activity (RET (human)): 101%
residual activity (ROS1 (human)): 99.1%
residual activity (STK24 (human)): 113%
residual activity (STK38 (human)): 104%
residual activity (STK4 (human)): 89.8%
residual activity (TLK2 (human)): 106%
residual activity (ULK3 (human)): 85.3%
residual activity (ZAP70 (human)): 102%

COc1ccc(-c2cnc3c(-c4ccsc4)cnn3c2)cc1
residual activity (ABL1 (human)): 72.9%
residual activity (ACVR1 (human)): 91.1%
residual activity (AURKB (human)): 50.8%
residual activity (BLK (human)): 83.5%
residual activity (BRAF (human)): 85.9%
residual activity (BTK (human)): 97.1%
residual activity (CDK1 CCNA2 (human)): 87.4%
residual activity (CSNK2A2 (human)): 87.3%
residual activity (DCLK2 (human)): 97.5%
residual activity (DYRK1A (human)): 69.7%
residual activity (EGFR (human)): 92.3%
residual activity (EPHA3 (human)): 93.4%
residual activity (EPHA5 (human)): 89.1%
residual activity (EPHA6 (human)): 85.1%
residual activity (FER (human)): 81.5%
residual activity (FGR (human)): 72.3%
residual activity (FLT1 (human)): 75.7%
residual activity (FRK (human)): 85.6%
residual activity (GSG2 (human)): 77.2%
residual activity (HIPK3 (human)): 103%
residual activity (IGF1R (human)): 91.3%
residual activity (IKBKB (human)): 99.6%
residual activity (MAP2K2 (human)): 95.5%
residual activity (MAP3K2 (human)): 98.7%
residual activity (MAPKAPK2 (human)): 95.8%
residual activity (MYLK2 (human)): 75.6%
residual activity (MYO3B (human)): 84%
residual activity (PDGFRB (human)): 63.4%
residual activity (PNCK (human)): 90.9%
residual activity (PRKACG (human)): 93.9%
residual activity (PRKCB1 (human)): 101%
residual activity (PRKCD (human)): 98.9%
residual activity (RET (human)): 92%
residual activity (ROS1 (human)): 98.8%
residual activity (STK24 (human)): 95.5%
residual activity (STK38 (human)): 102%
residual activity (STK4 (human)): 97.3%
residual activity (TLK2 (human)): 96.2%
residual activity (ULK3 (human)): 79.4%
residual activity (ZAP70 (human)): 93.7%

O=C(Nc1ccc(Cl)cc1)c1ccccc1NCc1ccncc1
residual activity (ABL1 (human)): 99.7%
residual activity (ACVR1 (human)): 97.2%
residual activity [1]: 91.4%
residual activity (AURKB (human)): 77.7%
residual activity (BLK (human)): 102%
residual activity (BRAF (human)): 90%
residual activity (BTK (human)): 98.9%
residual activity (CDK1 CCNA2 (human)): 91.8%
residual activity (CSNK2A2 (human)): 98.3%
residual activity (DCLK2 (human)): 95.2%
residual activity (DYRK1A (human)): 97.1%
residual activity (EPHA3 (human)): 92.1%
residual activity (EPHA5 (human)): 82.1%
residual activity (EPHA6 (human)): 89.8%
residual activity (FER (human)): 80.4%
residual activity (FGR (human)): 83.8%
residual activity (FLT1 (human)): 24.8%
residual activity (FRK (human)): 62.8%
residual activity (GSG2 (human)): 95.5%
residual activity (HIPK3 (human)): 98.7%
residual activity (IKBKB (human)): 99.3%
residual activity (MAP2K2 (human)): 102%
residual activity (MAP3K2 (human)): 92.8%
residual activity (MAPKAPK2 (human)): 97.6%
residual activity (MYLK2 (human)): 99.5%
residual activity (MYO3B (human)): 82%
residual activity (PAK6 (human)): 101%
residual activity (PDGFRB (human)): 45%
residual activity (PNCK (human)): 94.8%
residual activity (PRKACG (human)): 87.4%
residual activity (PRKCB1 (human)): 98.1%
residual activity (PRKCD (human)): 84.7%
residual activity (RET (human)): 58.9%
residual activity (ROS1 (human)): 100%
residual activity (STK24 (human)): 92.6%
residual activity (STK38 (human)): 97.5%
residual activity (STK4 (human)): 98.7%
residual activity (TLK2 (human)): 97.3%
residual activity (ULK3 (human)): 84.7%
residual activity (ZAP70 (human)): 103%
